Laboratory results as given in patent US20230286970A1, “NOVEL OXADIAZOLE-BASED SELECTIVE HDAC6 INHIBITORS” (ITALFARMACO S.P.A., priority 2020, published 2023).

Columns and labels:
HDAC3 = HDAC3 (Homo sapiens (Human), UniProt O15379); assay: Enzymatic screening, HDAC3 inhibition; format: biochemical
Protocol: (§1) For each test compound, 100× concentrated DMSO solutions at 8 doses were prepared and then diluted in assay buffer (25 mM Tris-HCl, pH 8, 130 mM NaCl, 0.05% Tween-20, 10% Glycerol) to obtain 5× concentrated solutions in relation to the final concentrations (typical final concentration range—6.4-200000 nM or 0.18-50000 nM, final DMSO content—1%). Then 10 μL solution of each test compound concentration were placed on a 96-well plate in triplicate and 15 μL of 3.33× concentrated enzyme solution in the assay buffer containing 3.33× concentrated BSA (final BSA concentration—2 mg/mL for HDAC4, HDAC5 and HDAC9 or 1 mg/mL for other isoforms) and in the case of HDAC6-3.33× concentrated TCEP (final TCEP concentration—200 μM) were added to each well. After a period of preincubation (incubation times and temperatures vary for different isoforms and are shown in table 1) 25 μL of solution containing the substrate were added. As substrate, FLUOR DE LYS® deacetylase substrate (Enzo Life Sciences, cat: BML-KI104, FdL), FLUOR DE LYS®-Green substrate (Enzo Life Sciences, cat: BML-KI572, FdL_G) or Boc-Lys(Tfa)-AMC (Bachem, cat: 4060676.005, Tfal)—2× concentrated solution in assay buffer were used. Following a reaction period (reaction times and temperatures vary for different isoforms and are reported in Table 1), 50 μL of the development solution consisting of concentrate FLUOR DE LYS® developer I (Enzo Life Sciences, ca: BML-KI105), diluted 200 times in buffer (50 mM Tris-HCl, pH 8, 137 mM NaCl, 2.7 mM KCl, 1 mM MgCl2) plus 2 μM TSA was added and, after 25 minutes at room temperature in the dark, using the Victor 1420 Multilabel Counter Perkin Elmer Wallac instrument, the fluorescence reading was carried out.

[1] = Stability in human plasma; settings: after 4 hours, 37° C.
recombinant human HDAC1 = recombinant human HDAC1 (Homo sapiens (Human), UniProt Q13547); assay: Enzymatic screening, HDAC1 inhibition (fluorogenic FdL_G substrate); format: biochemical
Procedure, shortened: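 Recombinant human HDAC1 inhibition was measured fluorometrically using the FLUOR DE LYS-Green (FdL_G) substrate. Compounds at 8 doses (1% DMSO final) in Tris-HCl pH 8 buffer with NaCl, Tween-20 and glycerol were preincubated in triplicate with enzyme and 1 mg/mL BSA, then given substrate. Developer I plus 2 μM TSA was added, and fluorescence read after 25 minutes in the dark.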

[2] = test system: α-tubulin acetylation in 697 cell line; assay: In vitro α-tubulin acetylation in 697 cell line (ELISA); format: cell-based; settings: 16 hours, read-out: fold increase @ 1 uM TubAc (ratio of acetylated tubulin and total tubulin towards control)
Procedure, shortened: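 B 697 cells in RPMI 10% FCS were treated for 16 h at 37 °C with compound at 1000, 333, 111 or 37 nM. Lysate (0.3 μg protein) was coated and probed by ELISA for acetylated and total α-tubulin, read at 450 nm. The acetylated/total ratio is given as fold over untreated control.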

HDAC9 = HDAC9 (Homo sapiens (Human), UniProt Q9UKV0); assay: Enzymatic screening, HDAC9 inhibition; format: biochemical
Protocol: as §1

[3] = Stability to Phase I metabolism in human S9 liver fraction; settings: after 90 minutes, 37° C.
Protocol: (§2) Test compounds were incubated in rat and human liver S9 fraction at 37° C. up to 90 minutes in order to evaluate their stability to Phase I metabolism by hepatic enzymes. Each test compound was incubated at μM concentration (50 μM when the samples were analysed by UV/HPLC, 1 or 2 μM when the samples were analysed by LC-MS/MS) with S9 fraction (protein content 2 mg/m L) in 100 mM phosphate buffer (pH 7.4), 3.3 mM MgCl2 and 1.3 mM NADPH for 0, 10, 30, 60 and 90 minutes at 37° C. in a thermostated oscillating bath. The reaction was stopped placing samples on ice bath and adding acidified acetonitrile. After centrifugation (10 minutes at 14000 rpm) an aliquot of the supernatant was diluted with water, filtered with 0.45 μm regenerated cellulose syringe filters and injected in HPLC-UV or in LC-MS/MS. The percentage of the remaining amount at the various incubation times with respect to the initial amount were calculated.

HDAC5 = HDAC5 (Homo sapiens (Human), UniProt Q9UQL6); assay: Enzymatic screening, HDAC5 inhibition; format: biochemical
HDAC5, sequence (Q9UQL6 whole entry): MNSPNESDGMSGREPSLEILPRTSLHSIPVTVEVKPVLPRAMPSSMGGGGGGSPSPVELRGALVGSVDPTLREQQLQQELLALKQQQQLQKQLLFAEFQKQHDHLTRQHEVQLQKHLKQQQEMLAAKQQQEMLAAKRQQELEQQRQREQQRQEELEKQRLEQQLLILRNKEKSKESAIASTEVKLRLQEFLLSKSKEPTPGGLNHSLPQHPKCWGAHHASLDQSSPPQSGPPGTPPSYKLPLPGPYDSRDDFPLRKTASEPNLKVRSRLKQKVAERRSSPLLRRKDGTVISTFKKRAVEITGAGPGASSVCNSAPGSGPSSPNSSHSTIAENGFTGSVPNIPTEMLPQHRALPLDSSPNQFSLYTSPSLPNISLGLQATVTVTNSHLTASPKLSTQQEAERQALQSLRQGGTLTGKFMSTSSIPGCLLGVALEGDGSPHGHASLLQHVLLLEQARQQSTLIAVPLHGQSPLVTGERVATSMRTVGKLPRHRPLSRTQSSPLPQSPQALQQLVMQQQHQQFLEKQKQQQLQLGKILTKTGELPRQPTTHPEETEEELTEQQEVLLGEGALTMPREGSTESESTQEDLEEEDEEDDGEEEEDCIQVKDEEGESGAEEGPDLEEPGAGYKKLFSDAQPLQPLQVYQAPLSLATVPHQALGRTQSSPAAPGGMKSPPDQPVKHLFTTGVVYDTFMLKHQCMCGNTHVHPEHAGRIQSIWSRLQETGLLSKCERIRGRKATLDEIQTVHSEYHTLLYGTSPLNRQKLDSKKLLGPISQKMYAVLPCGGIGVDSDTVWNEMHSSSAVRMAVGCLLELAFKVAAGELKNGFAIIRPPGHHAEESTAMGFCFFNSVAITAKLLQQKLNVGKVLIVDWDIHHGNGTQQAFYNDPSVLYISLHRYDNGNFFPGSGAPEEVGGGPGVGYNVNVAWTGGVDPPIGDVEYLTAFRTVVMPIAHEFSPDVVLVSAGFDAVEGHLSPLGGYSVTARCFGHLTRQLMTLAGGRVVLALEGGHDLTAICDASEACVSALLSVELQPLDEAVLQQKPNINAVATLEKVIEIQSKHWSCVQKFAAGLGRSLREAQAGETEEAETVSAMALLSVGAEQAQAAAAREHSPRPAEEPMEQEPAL
Protocol: as §1

HDAC8 = HDAC8 (Homo sapiens (Human), UniProt Q9BY41); assay: Enzymatic screening, HDAC8 inhibition; format: biochemical
HDAC8, sequence (Q9BY41 whole entry): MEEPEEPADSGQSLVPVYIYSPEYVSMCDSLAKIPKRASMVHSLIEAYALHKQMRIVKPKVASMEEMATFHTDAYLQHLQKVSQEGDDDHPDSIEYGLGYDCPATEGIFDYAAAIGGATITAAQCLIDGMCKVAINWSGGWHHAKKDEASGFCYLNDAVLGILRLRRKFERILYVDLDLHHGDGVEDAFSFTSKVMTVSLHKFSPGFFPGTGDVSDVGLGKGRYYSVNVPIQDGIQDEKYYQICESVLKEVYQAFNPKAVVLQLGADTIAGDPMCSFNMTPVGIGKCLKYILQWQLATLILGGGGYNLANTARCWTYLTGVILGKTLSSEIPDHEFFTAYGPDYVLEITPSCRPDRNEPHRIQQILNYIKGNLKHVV
Protocol: as §1

recombinant human HDAC6 = recombinant human HDAC6 (Homo sapiens (Human), UniProt Q9UBN7); assay: Enzymatic screening, HDAC6 inhibition (fluorogenic FdL_G substrate); format: biochemical
recombinant human HDAC6, sequence (Q9UBN7 whole entry): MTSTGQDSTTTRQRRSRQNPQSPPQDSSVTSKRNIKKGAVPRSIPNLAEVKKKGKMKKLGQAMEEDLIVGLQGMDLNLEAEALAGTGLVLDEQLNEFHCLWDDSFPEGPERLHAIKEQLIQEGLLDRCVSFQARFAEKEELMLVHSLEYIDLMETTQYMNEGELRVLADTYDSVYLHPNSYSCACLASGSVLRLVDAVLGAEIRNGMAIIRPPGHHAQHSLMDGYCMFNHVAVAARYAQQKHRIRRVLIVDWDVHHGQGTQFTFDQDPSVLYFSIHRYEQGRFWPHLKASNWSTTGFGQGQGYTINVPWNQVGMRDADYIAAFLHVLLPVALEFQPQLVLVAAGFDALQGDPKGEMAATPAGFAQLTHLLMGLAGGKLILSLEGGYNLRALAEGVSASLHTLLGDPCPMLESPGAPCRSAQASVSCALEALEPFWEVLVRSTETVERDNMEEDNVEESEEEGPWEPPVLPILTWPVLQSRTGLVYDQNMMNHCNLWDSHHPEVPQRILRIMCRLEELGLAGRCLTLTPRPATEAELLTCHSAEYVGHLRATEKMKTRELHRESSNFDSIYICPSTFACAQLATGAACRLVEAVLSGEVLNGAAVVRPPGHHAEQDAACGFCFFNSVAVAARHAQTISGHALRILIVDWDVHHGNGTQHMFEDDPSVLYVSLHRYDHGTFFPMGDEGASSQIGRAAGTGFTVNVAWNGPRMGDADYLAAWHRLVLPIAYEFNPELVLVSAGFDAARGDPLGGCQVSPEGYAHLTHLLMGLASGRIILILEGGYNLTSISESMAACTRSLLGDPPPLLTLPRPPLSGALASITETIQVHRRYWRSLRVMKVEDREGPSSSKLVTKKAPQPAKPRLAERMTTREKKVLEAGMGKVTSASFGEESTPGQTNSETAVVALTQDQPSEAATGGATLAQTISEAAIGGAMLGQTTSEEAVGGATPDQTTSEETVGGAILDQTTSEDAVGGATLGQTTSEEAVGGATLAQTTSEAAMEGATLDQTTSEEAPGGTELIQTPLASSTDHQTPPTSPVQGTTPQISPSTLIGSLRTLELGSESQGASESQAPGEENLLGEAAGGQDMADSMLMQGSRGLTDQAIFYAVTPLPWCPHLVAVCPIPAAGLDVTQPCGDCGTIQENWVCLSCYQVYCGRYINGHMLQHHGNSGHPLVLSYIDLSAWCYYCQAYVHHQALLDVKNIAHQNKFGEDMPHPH
Procedure, shortened: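 Enzyme was preincubated with compound (8 doses, triplicate, 1% DMSO) in 25 mM Tris-HCl pH 8, 130 mM NaCl, 0.05% Tween-20, 10% glycerol, with BSA. A FLUOR DE LYS-Green substrate was then added, and fluorescence was read after developer plus 2 μM TSA.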

HDAC7 = HDAC7 (Homo sapiens (Human), UniProt Q8WUI4); assay: Enzymatic screening, HDAC7 inhibition; format: biochemical
HDAC7, sequence (Q8WUI4 whole entry): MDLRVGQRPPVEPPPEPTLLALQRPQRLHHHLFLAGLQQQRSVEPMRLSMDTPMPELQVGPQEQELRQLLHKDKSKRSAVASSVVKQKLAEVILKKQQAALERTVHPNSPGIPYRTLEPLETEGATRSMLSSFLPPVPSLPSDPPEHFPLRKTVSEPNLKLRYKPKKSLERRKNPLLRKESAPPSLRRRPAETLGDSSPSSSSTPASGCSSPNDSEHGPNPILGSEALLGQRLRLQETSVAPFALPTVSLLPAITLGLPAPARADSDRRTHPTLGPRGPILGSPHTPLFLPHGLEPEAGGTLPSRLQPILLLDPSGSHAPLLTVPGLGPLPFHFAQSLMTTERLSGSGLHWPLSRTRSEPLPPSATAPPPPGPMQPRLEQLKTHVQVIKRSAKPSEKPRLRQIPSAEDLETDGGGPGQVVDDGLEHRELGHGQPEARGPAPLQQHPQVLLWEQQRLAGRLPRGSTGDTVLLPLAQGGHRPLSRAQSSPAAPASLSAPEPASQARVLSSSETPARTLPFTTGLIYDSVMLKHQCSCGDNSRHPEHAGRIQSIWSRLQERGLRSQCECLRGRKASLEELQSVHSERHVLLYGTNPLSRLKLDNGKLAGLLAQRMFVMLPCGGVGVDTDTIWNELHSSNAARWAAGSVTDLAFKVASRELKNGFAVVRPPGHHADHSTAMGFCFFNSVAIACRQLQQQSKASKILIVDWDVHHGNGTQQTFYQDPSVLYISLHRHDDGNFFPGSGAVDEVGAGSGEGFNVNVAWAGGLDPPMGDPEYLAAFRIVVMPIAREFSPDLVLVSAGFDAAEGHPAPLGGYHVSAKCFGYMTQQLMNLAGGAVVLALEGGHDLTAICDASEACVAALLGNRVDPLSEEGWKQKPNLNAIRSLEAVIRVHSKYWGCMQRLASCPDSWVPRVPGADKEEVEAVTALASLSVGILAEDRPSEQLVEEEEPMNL
Protocol: as §1

HDAC2 = HDAC2 (Homo sapiens (Human), UniProt Q92769); assay: Enzymatic screening, HDAC2 inhibition; format: biochemical
Protocol: as §1

HDAC4 = HDAC4 (Homo sapiens (Human), UniProt P56524); assay: Enzymatic screening, HDAC4 inhibition; format: biochemical
Protocol: as §1

Stability in rat plasma = settings: after 4 hours, 37° C.
[4] = Stability to Phase I metabolism in rat S9 liver fraction; settings: after 90 minutes, 37° C.
Protocol: as §2

HDAC11 = HDAC11 (Homo sapiens (Human), UniProt Q96DB2); assay: Enzymatic screening, HDAC11 inhibition; format: biochemical
Protocol: as §1

HDAC10 = HDAC10 (Homo sapiens (Human), UniProt Q969S8); assay: Enzymatic screening, HDAC10 inhibition; format: biochemical
HDAC10, sequence (Q969S8 whole entry): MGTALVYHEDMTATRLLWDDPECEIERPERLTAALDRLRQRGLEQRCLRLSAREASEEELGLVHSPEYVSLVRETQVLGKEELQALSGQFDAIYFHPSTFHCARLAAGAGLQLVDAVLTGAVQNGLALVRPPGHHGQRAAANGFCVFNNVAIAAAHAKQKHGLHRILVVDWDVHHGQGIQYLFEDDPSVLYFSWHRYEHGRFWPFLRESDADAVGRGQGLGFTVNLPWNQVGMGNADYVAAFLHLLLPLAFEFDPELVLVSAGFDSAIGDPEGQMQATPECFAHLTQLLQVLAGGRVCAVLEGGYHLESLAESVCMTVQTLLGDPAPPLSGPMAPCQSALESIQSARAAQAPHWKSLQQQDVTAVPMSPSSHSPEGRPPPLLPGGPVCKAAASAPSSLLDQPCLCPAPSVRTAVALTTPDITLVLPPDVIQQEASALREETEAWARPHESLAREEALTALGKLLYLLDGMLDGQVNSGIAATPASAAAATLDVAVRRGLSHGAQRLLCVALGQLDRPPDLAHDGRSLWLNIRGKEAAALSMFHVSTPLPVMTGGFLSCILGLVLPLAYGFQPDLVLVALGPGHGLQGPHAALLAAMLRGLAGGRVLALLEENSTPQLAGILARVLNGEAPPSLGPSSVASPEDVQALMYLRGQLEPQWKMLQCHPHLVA
Protocol: as §1

HDAC3, sequence (O15379 whole entry, canonical isoform): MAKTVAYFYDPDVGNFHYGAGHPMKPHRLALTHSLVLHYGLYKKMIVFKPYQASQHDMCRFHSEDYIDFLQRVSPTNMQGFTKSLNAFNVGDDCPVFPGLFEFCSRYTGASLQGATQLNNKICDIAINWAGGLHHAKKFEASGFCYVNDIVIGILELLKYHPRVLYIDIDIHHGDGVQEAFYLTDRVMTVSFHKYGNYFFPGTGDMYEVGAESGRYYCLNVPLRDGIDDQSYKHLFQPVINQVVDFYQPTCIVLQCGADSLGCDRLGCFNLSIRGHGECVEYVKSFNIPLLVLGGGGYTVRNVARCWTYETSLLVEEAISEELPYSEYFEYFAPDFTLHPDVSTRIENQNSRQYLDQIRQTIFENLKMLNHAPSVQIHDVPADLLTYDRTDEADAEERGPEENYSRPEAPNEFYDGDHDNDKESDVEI
HDAC3, sequence (Q9Y618 395-489 partner): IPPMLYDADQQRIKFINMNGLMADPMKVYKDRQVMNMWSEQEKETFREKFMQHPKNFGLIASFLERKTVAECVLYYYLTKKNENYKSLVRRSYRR

SMILES	IC50 (HDAC3) [µM]	residual percentage in HUMAN PLASMA [1] [%]	IC50 (recombinant human HDAC1) [µM]	fold induction at 1 µM [2]	IC50 (HDAC9) [µM]	residual percentage in HUMAN S9 FRACTION [3] [%]	IC50 (HDAC5) [µM]	IC50 (HDAC8) [µM]	IC50 (recombinant human HDAC6) [µM]	IC50 (HDAC7) [µM]	IC50 (HDAC2) [µM]	IC50 (HDAC4) [µM]	residual percentage in RAT PLASMA (Stability in rat plasma) [%]	residual percentage in RAT S9 FRACTION [4] [%]	IC50 (HDAC11) [µM]	IC50 (HDAC10) [µM]
O=C(Nc1cc(-c2nnn(Cc3ccc(-c4nnc(C(F)F)o4)cn3)n2)ccc1O)N1CCOCC1 [compound 2, N-(5-(2-((5-(5-(difluoromethyl)-1,3,4-oxadiazol-2-yl)pyridin-2-yl)methyl)-2H-tetrazol-5-yl)-2-hydroxyphenyl)morpholine-4-carboxamide]	> 30	87	> 200	26	> 30	70	> 30	> 200	0.01	> 30	> 30	> 30	90	61	> 30	> 30
O=C1NCc2ccc(-c3nnn(Cc4ccc(-c5nnc(C(F)F)o5)cn4)n3)cc21 [compound 4, 6-(2-((5-(5-(difluoromethyl)-1,3,4-oxadiazol-2-yl)pyridin-2-yl)methyl)-2H-tetrazol-5-yl)isoindolin-1-one]	> 30	80	> 200	13	> 30	77	> 30	> 200	0.012	> 30	> 30	> 30	78	77	> 30	> 30
Nc1ccc(-c2cn(Cc3ccc(-c4nnc(C(F)F)o4)cn3)nn2)cn1 [compound 5, 5-(1-((5-(5-(difluoromethyl)-1,3,4-oxadiazol-2-yl)pyridin-2-yl)methyl)-1H-1,2,3-triazol-4-yl)pyridin-2-amine]	> 30	74	> 200	19	> 30	92	> 30	> 200	0.012	> 30	> 30	> 30	70	93	> 30	> 30
O=C(Nc1cccc(-c2cn(Cc3ccc(-c4nnc(C(F)F)o4)cn3)nn2)c1)N1CCOCC1 [compound 6, N-(3-(1-((5-(5-(difluoromethyl)-1,3,4-oxadiazol-2-yl)pyridin-2-yl)methyl)-1H-1,2,3-triazol-4-yl)phenyl)morpholine-4-carboxamide]	> 30	93	> 200	19	> 30	99	> 30	> 200	0.013	> 30	> 30	> 30	93	93	> 30	> 30
Nc1nc2cc(-c3nnn(Cc4ccc(-c5nnc(C(F)F)o5)cn4)n3)ccc2o1 [compound 7, 5-(2-((5-(5-(difluoromethyl)-1,3,4-oxadiazol-2-yl)pyridin-2-yl)methyl)-2H-tetrazol-5-yl)benzo[d]oxazol-2-amine]	> 30	76	> 200	16	> 30	92	> 30	> 200	0.013	> 30	> 30	> 30	81	96	> 30	> 30
FC(F)c1nnc(-c2ccc(Cn3cc(-c4ccc(NC5=NCCN5)cc4)nn3)cc2)o1 [compound 10, N-(4-(1-(4-(5-(difluoromethyl)-1,3,4-oxadiazol-2-yl)benzyl)-1H-1,2,3-triazol-4-yl)phenyl)-4,5-dihydro-1H-imidazol-2-amine]	> 30	89	> 200	11	> 30	95	> 30	29.5	0.016	> 30	> 30	> 30	97	95	> 30	> 30
Cn1c(N)nc2cc(-c3nnn(Cc4ccc(-c5nnc(C(F)F)o5)cc4)n3)ccc21 [compound 11, 5-(2-(4-(5-(difluoromethyl)-1,3,4-oxadiazol-2-yl)benzyl)-2H-tetrazol-5-yl)-1-methyl-1H-benzo[d]imidazol-2-amine]	> 30	83	> 200	18	> 30	70	> 30	> 200	0.019	> 30	> 30	> 30	86	90	> 30	> 30
Nc1ccc(-c2cn(Cc3ccc(-c4nnc(C(F)F)o4)cn3)cn2)cn1 [compound 12, 5-(1-((5-(5-(difluoromethyl)-1,3,4-oxadiazol-2-yl)pyridin-2-yl)methyl)-1H-imidazol-4-yl)pyridin-2-amine]	> 30	82	> 200	11	> 30	96	> 30	> 200	0.02	> 30	> 30	> 30	86	98	> 30	> 30
Nc1ccc(-c2cnn(Cc3ccc(-c4nnc(C(F)F)o4)cn3)c2)cn1 [compound 13, 5-(1-((5-(5-(difluoromethyl)-1,3,4-oxadiazol-2-yl)pyridin-2-yl)methyl)-1H-pyrazol-4-yl)pyridin-2-amine]	> 30	78	> 200	16	> 30	97	> 30	197	0.023	> 30	> 30	> 30	75	98	> 30	> 30
